{
  "source": "paper PMC2364081",
  "about": "“Antagonists of retinoic acid receptors (RARs) are potent growth inhibitors of prostate carcinoma cells” (British Journal of Cancer, 2001)",
  "key": {"PC3 ITS+ cells": {"tested_on": "PC3 ITS+ cells", "experiment": "Plate colony formation assay, serum-free (ITS+)-grown PC3", "assay_type": "cell-based, human", "conditions": "14 days", "text": "(§1) Prostate cancer is one of the most common cancers in European and American males and has a high mortality rate (Landis et al, 1998; Rosenthal, 1998). Early disease is managed conservatively in Europe although in selected patients surgery is curative. In advanced disease, androgen ablation can produce symptomatic improvement, but the tumour often re-emerges in an androgen- independent and incurable form. One proposed treatment for androgen-independent prostate carcinoma is differentiation ther- apy, in which agents such as all-trans-retinoic acid (ATRA), 9-cis- retinoic acid and 1, 25-dihydroxyvitamin D3 (D3 ) are used to induce growth arrest, differentiation and sometimes apoptosis of the tumour cells (Liang et al, 1999; de Vos et al, 1997; Skowronski et al, 1994; Hedlund et al, 1997). ATRA and synthetic analogues exert their biological effects by binding to two families of retinoid receptors, the RARs (RAR, RAR and RAR) and the RXRs (RXR, RXR and RXR). These are ligand-dependent transcription factors of the steroid/thyroid hormone nuclear receptor superfamily (Chambon 1994; Boehm et al, 1995). Activated RARs bind to retinoic acid-responsive elements (RAREs) in the promoters of genes and thus regulate gene expression. They also antagonize the activity of the tran- scription factor AP1 and thereby down-regulate the expression of some AP1-activated genes (Nagpal et al, 1995). One approach to unravelling the contributions of RAR sub-types to these actions has been the development of synthetic retinoids with selective activities at individual RARs and RXRs. For example, the diaryl- acetylenic retinoids allow separation of transactivation and AP1 antagonism functions at RAR (Nagpal et al, 1995). Recently, compounds that are selective for particular RAR sub-types have been synthesized: these include both agonists and antagonists (Chandraratna, 1995; Teng et al, 1999; Johnson et al, 1999). The functional selectivity of these compounds may open the way to achieving differentiation or apoptosis of tumour cells with minimal systemic side effects (Chandraratna, 1995). […]"}, "[1]": {"tested_on": "LNCaP, PC3 and DU145 cells", "experiment": "Plate colony formation assay, stated over the three serum-free grown lines", "assay_type": "cell-based, human", "text": "(§2) Prostate cancer is one of the most common cancers in European and American males and has a high mortality rate (Landis et al, 1998; Rosenthal, 1998). Early disease is managed conservatively in Europe although in selected patients surgery is curative. In advanced disease, androgen ablation can produce symptomatic improvement, but the tumour often re-emerges in an androgen- independent and incurable form. One proposed treatment for androgen-independent prostate carcinoma is differentiation ther- apy, in which agents such as all-trans-retinoic acid (ATRA), 9-cis- retinoic acid and 1, 25-dihydroxyvitamin D3 (D3 ) are used to induce growth arrest, differentiation and sometimes apoptosis of the tumour cells (Liang et al, 1999; de Vos et al, 1997; Skowronski et al, 1994; Hedlund et al, 1997). ATRA and synthetic analogues exert their biological effects by binding to two families of retinoid receptors, […]. These are ligand-dependent transcription factors of the steroid/thyroid hormone nuclear receptor superfamily (Chambon 1994; Boehm et al, 1995). Activated RARs bind to retinoic acid-responsive elements (RAREs) in the promoters of genes and thus regulate gene expression. They also antagonize the activity of the tran- scription factor AP1 and thereby down-regulate the expression of some AP1-activated genes (Nagpal et al, 1995). One approach to unravelling the contributions of RAR sub-types to these actions has been the development of synthetic retinoids with selective activities at individual RARs and RXRs. For example, the diaryl- acetylenic retinoids allow separation of transactivation and AP1 antagonism functions at RAR (Nagpal et al, 1995). Recently, compounds that are selective for particular RAR sub-types have been synthesized: these include both agonists and antagonists (Chandraratna, 1995; Teng et al, 1999; Johnson et al, 1999). The functional selectivity of these compounds may open the way to achieving differentiation or apoptosis of tumour cells with minimal systemic side effects (Chandraratna, 1995). Cell lines that are commonly used in the evaluation of investiga- tional agents for prostate cancer include LNCaP, DU-145 and PC- 3. […] These lines are relatively insensitive to growth inhibition and induction of apoptosis by ATRA and by synthetic agonists. […] Fenretinide (4HPR) induces apoptosis of LNCaP and of PC-3 cells at 1-5 M and 25 µM, respectively (Pienta et al, 1993; Heish and Wu, 1997). Pfahl and colleagues examined the growth inhibitory effects of a panel of receptor-selective retinoids against DU145 and PC-3 cells and achieved complete growth inhibition and induction of apoptosis between 1 M and 10 M (Lu et al, 1999). […] Antagonists of retinoic acid receptors (RARs) are potent growth inhibitors of prostate carcinoma cells LA Hammond1 , CH Van Krinks2 , J Durham2 , SE Tomkins2 , RD Burnett3 , EL Jones1 , RAS Chandraratna3 and G Brown2 Divisions of 1 Cancer Studies and of 2 Immunity and Infection, University of Birmingham Medical School, Edgbaston, Birmingham B15 2TT, UK and 3 Retinoid Research, Allergan Inc., Irvine, California, USA Summary Novel synthetic antagonists of retinoic acid receptors (RARs) have been developed. To avoid interference by serum retinoids when testing these compounds, we established serum-free grown sub-lines (>3 years) of the prostate carcinoma lines LNCaP, PC3 and DU145. […] A component(s) of serum and of LNCaP-conditioned medium diminishes the activity of antagonists: this factor is not the most likely candidates IGF-1 and EGF. In vitro studies of RAR antagonists together with data from RAR-null mice lead to the hypothesis that RAR-regulated gene transcription is necessary for the survival and maintenance of prostate epithelium. […]"}, "[2]": {"tested_on": "FBS-grown LNCaP, DU145 and PC3 cells", "experiment": "Plate colony formation assay, stated over the three FBS-grown lines", "assay_type": "cell-based, human", "conditions": "100 nM", "text": "as §1, with “1995).” for “1995). One approach to unravelling the contributions of RAR sub-types to these actions has been the development of synthetic retinoids with selective activities at individual RARs and RXRs. For example, the diaryl- acetylenic retinoids allow separation of transactivation and AP1 antagonism functions at RAR (Nagpal et al, 1995). Recently, compounds that are selective for particular RAR sub-types have been synthesized: these include both agonists and antagonists (Chandraratna, 1995; Teng et al, 1999; Johnson et al, 1999). The functional selectivity of these compounds may open the way to achieving differentiation or apoptosis of tumour cells with minimal systemic side effects (Chandraratna, 1995).”"}, "HL60 cells [3]": {"tested_on": "HL60 cells", "experiment": "ATRA-induced differentiation of HL60 cells to neutrophils (nitroblue tetrazolium reduction)", "assay_type": "cell-based, human", "conditions": "antagonist at 100 nM added with 100 nM ATRA", "text": "as §1, with “1995).” for “1995). One approach to unravelling the contributions of RAR sub-types to these actions has been the development of synthetic retinoids with selective activities at individual RARs and RXRs. For example, the diaryl- acetylenic retinoids allow separation of transactivation and AP1 antagonism functions at RAR (Nagpal et al, 1995). Recently, compounds that are selective for particular RAR sub-types have been synthesized: these include both agonists and antagonists (Chandraratna, 1995; Teng et al, 1999; Johnson et al, 1999). The functional selectivity of these compounds may open the way to achieving differentiation or apoptosis of tumour cells with minimal systemic side effects (Chandraratna, 1995).”"}, "HL60 cells [4]": {"tested_on": "HL60 cells", "experiment": "Clonal growth of single serum-free grown HL60 cells in microtitre wells", "assay_type": "cell-based, human", "text": "as §2"}, "[5]": {"tested_on": "primary prostate carcinoma cells", "experiment": "Growth of primary prostate carcinoma cells (flask cultures, passage 2)", "assay_type": "cell-based, human", "conditions": "10 and 100 nM, two patients, days 3 and 6", "text": "as §1, with “1995).” for “1995). One approach to unravelling the contributions of RAR sub-types to these actions has been the development of synthetic retinoids with selective activities at individual RARs and RXRs. For example, the diaryl- acetylenic retinoids allow separation of transactivation and AP1 antagonism functions at RAR (Nagpal et al, 1995). Recently, compounds that are selective for particular RAR sub-types have been synthesized: these include both agonists and antagonists (Chandraratna, 1995; Teng et al, 1999; Johnson et al, 1999). The functional selectivity of these compounds may open the way to achieving differentiation or apoptosis of tumour cells with minimal systemic side effects (Chandraratna, 1995).”"}, "RARα": {"target": "T1, RARα (Homo sapiens, UniProt P10276)", "T1 sequence (P10276 1-462)": "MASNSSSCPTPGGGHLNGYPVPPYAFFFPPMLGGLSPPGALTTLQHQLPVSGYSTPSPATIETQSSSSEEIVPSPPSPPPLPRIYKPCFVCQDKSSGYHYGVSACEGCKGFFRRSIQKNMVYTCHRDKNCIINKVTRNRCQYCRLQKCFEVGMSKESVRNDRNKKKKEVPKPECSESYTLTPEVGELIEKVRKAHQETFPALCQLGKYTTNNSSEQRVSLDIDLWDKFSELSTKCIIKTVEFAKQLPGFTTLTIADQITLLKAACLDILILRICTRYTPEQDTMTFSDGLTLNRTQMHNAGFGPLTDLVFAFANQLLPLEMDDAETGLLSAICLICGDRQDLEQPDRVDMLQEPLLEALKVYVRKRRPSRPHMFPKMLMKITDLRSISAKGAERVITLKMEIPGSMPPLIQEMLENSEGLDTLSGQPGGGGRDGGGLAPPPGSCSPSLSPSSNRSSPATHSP", "experiment": "Binding to baculovirus-expressed RARα", "parameters": "made in house", "conditions": "baculovirus-expressed receptor", "text": "as §2"}, "RARγ": {"target": "T2, RARγ (Homo sapiens, UniProt P13631)", "T2 sequence (P13631 1-454)": "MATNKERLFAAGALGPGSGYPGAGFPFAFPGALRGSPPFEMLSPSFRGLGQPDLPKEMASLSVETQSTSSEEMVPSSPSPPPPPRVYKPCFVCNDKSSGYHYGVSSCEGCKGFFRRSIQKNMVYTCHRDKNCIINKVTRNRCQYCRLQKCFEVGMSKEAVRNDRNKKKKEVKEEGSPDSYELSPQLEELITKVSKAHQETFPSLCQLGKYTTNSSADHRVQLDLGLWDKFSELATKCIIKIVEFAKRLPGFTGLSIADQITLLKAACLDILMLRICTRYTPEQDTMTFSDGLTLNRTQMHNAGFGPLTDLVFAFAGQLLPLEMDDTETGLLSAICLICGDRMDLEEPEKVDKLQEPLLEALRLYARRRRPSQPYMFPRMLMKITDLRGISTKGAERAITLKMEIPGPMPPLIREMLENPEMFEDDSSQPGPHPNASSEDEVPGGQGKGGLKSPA", "experiment": "Binding to baculovirus-expressed RARγ", "parameters": "made in house", "conditions": "baculovirus-expressed receptor", "text": "as §2"}},
  "note": "pIC50, pKd: −log10 of the molar value.",
  "data": [
    {"smiles": "CCc1ccc(C2=CC(C)(C)Sc3ccc(C#Cc4ccc(C(=O)O)cc4)cc32)cc1", "note": "[AGN194310]", "values": [
      {"measurement": "pIC50", "setting": "PC3 ITS+ cells", "result": 7.74},
      {"measurement": "colony formation (% of control)", "setting": "[1]; 100 nM, ITS+-grown cells, all three cell lines", "result": "3-7%"},
      {"measurement": "fold more potent than ATRA", "setting": "[1]; against cell lines, serum-free", "result": "12–22 fold"},
      {"measurement": "pIC50", "setting": "[1]; stated over all three serum-free grown lines, read-out: concentration inhibiting colony formation by 50% (IC50)", "result": "7.47 to 7.80"},
      {"measurement": "inhibition of colony formation", "setting": "[2]", "result": "11-23%"},
      {"measurement": "percentage of mature cells", "setting": "HL60 cells [3]", "result": 5, "unit": "%"},
      {"measurement": "effect on clonal growth of HL60 cells", "setting": "HL60 cells [4]", "result": "did not adversely affect"},
      {"measurement": "viability of the single cells", "setting": "HL60 cells [4]; 0.1 µM", "result": "> 95", "unit": "%"},
      {"measurement": "number of viable cells at day 4", "setting": "HL60 cells [4]; 100 nM, control 18", "result": 17},
      {"measurement": "cloning efficiency", "setting": "HL60 cells [4]; 100 nM, same as untreated", "result": "90-93%"},
      {"measurement": "cell growth of primary lines", "setting": "[5]", "result": "substan- tial growth inhibition"},
      {"measurement": "pKd", "setting": "RARα", "result": 8.52},
      {"measurement": "pKd", "setting": "RARγ", "result": 8.30}
    ]}
  ]
}
